# Like-named read-outs stand apart in the source and are kept apart here.
# Legend:
# JAK3 = JAK3 (Homo sapiens (Human), UniProt P52333); experiment: JAK3 enzyme assay (Z'-LYTE); format: biochemical; details: 10 μM ATP; mean of at least 2 experiments; read-out: JAK3 enz pIC50 (converted)
# From the text: The 2× AURKB (Aurora B)/Ser/[…]
# JAK2 = JAK2 (Homo sapiens (Human), UniProt O60674); experiment: JAK2 enzyme assay (Z'-LYTE); format: biochemical; details: 25 μM ATP; mean of at least 2 experiments; read-out: JAK2 enz pIC50 (converted)
# Method: (§1) d) Aurora-A, Aurora-B, JAK1, JAK2, JAK3 Enzyme Assays
# (§2) The inhibitory activity of compounds against AURKA, AURKB, JAK1, JAK2 and JAK3 was determined in Z′-LYTE® assays run by ThermoFisher Scientific as part of their SelectScreen® Biochemical Kinase Profiling Service. The Z′-LYTE® biochemical assay format employs a fluorescence-based, coupled-enzyme format and is based on the differential sensitivity of phosphorylated and non-phosphorylated peptides to proteolytic cleavage. The peptide substrate is labeled with two fluorophores—one at each end—that make up a FRET pair. In the primary reaction, the kinase transfers the gamma-phosphate of ATP to a single tyrosine, serine or threonine residue in a synthetic FRET-peptide. In the secondary reaction, a site-specific protease recognises and cleaves non-phosphorylated FRET-peptides. Phosphorylation of FRET-peptides suppresses cleavage by the Development Reagent. Cleavage disrupts FRET between the donor (i.e., coumarin) and acceptor (i.e., fluorescein) fluorophores on the FRET-peptide, whereas uncleaved, phosphorylated FRET-peptides maintain FRET. A ratiometric method, which calculates the ratio (the Emission Ratio) of donor emission to acceptor emission after excitation of the donor fluorophore at 400 nm, is used to quantitate reaction progress. Both cleaved and uncleaved FRET-peptides contribute to the fluorescence signals and therefore to the Emission Ratio. The extent of phosphorylation of the FRET-peptide can be calculated from the Emission Ratio.
# (§3) 2.4 μL Kinase Buffer (50 mM HEPES pH 7.5, 0.01% BRIJ-35, 10 mM MgCl2, 1 mM EGTA), 5 μL 2× Peptide/Kinase mixture (detailed below for each kinase) and 2.5 μL 4× ATP Solution (prepared in Kinase Buffer) were added separately to the compound plates, placed on a plate shaker for 30 sec, and then incubated for 60 mins at room temperature. […] Assay plates were placed on a plate shaker for 30 sec, incubated for 60 mins at room temperature, and then read using a fluorescence plate reader.
# AURKB (Aurora B) = AURKB (Aurora B) (Homo sapiens (Human), UniProt Q96GD4); experiment: Aurora-B enzyme assay (Z'-LYTE); format: biochemical; details: 75 μM ATP; mean of at least 2 experiments; read-out: AurB enz pIC50 (converted)
# Method: as §1, §2, §3
# AURKA (Aurora A) = AURKA (Aurora A) (Homo sapiens (Human), UniProt O14965); experiment: Aurora-A enzyme assay (Z'-LYTE); format: biochemical; details: 10 μM ATP; mean of at least 2 experiments; read-out: AurA enz pIC50 (converted)
# Method: as §1, §2, §3
# JAK1 = JAK1 (Homo sapiens (Human), UniProt P23458); experiment: JAK1 enzyme assay (Z'-LYTE); format: biochemical; details: 75 μM ATP; mean of at least 2 experiments; read-out: JAK1 enz pIC50 (converted)
# Method: as §1, §2, §3
# TTK = TTK (Homo sapiens (Human), UniProt P33981); experiment: TTK enzyme assay (LanthaScreen Eu Kinase Binding assay); details: mean of at least 2 experiments
# From the text: The LanthaScreen® Eu Kinase Binding assay format uses binding of an Alexa Fluor® conjugate or “tracer” to a kinase, which is detected by addition of a Eu-labeled anti-tag antibody. […] The degree of FRET measured in the assay is used to determine the binding of a compound.
# Plates were then read using a fluorescence plate reader.
# DNAPK [1] = biological target: T1, DNAPK (Homo sapiens (Human), UniProt P78527); experiment: DNAPK cellular potency assay (DNA-PK cell), pS2056-DNAPK ELISA in irradiated A549 cells; format: cell-based; details: A549 cell line, 8 Gy radiation, mean of at least 2 experiments, read-out: DNA-PK cell pIC50 (converted)
# DNAPK [2] = biological target: T1, DNAPK; format: biochemical; details: mean of at least 2 experiments; 18 μM ATP; read-out: DNA-PK enz pIC50 (converted)
# From the text: The following assays were used to measure the effects of the compounds described herein: a) DNAPK enzyme potency assay; b) DNAPK cellular potency assay. During the description of the assays, generally: • i. The following abbreviations have been used; DMSO=Dimethyl Sulphoxide; DTT=Dithiothreitol; EDTA=Ethylenediaminetetraacetic Acid, TR-FRET=Time Resolved Fluorescence Resonance Energy Transfer, ATP=Adenosine triphosphate, DTT=Dithiothreitol, DNA=Deoxyribonucleic acid, HEPES=(2-hydroxyethyl)-1-piperazineethanesulfonic acid • ii.
# JAK3, sequence (P52333 whole entry): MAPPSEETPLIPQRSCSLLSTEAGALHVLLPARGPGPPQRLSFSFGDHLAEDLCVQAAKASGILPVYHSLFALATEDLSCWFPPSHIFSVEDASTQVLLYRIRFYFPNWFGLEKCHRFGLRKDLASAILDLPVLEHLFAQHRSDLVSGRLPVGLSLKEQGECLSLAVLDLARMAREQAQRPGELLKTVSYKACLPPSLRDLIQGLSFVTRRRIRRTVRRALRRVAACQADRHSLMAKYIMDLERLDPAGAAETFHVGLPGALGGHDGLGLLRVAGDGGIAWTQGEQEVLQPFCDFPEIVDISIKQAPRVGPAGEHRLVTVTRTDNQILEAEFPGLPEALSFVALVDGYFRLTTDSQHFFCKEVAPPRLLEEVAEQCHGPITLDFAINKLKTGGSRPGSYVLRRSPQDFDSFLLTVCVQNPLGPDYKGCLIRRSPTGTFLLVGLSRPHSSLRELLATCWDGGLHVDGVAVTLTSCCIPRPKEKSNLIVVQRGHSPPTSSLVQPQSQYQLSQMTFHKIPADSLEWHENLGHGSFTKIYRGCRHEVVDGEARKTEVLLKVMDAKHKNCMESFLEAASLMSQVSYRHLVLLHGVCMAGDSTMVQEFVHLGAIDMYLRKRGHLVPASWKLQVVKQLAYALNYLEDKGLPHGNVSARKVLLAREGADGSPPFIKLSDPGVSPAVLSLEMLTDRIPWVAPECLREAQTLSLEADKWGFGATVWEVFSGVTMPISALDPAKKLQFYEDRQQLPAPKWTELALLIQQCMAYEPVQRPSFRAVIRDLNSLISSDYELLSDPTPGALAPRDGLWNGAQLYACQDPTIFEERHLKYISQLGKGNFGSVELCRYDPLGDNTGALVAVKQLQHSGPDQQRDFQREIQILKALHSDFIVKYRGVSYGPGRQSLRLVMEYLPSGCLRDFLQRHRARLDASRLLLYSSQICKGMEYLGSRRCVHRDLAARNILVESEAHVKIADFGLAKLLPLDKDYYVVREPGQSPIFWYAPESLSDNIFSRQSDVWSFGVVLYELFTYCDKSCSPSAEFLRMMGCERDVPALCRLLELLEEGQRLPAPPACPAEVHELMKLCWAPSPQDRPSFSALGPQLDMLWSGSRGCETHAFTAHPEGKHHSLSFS
# JAK1, sequence (P23458 whole entry): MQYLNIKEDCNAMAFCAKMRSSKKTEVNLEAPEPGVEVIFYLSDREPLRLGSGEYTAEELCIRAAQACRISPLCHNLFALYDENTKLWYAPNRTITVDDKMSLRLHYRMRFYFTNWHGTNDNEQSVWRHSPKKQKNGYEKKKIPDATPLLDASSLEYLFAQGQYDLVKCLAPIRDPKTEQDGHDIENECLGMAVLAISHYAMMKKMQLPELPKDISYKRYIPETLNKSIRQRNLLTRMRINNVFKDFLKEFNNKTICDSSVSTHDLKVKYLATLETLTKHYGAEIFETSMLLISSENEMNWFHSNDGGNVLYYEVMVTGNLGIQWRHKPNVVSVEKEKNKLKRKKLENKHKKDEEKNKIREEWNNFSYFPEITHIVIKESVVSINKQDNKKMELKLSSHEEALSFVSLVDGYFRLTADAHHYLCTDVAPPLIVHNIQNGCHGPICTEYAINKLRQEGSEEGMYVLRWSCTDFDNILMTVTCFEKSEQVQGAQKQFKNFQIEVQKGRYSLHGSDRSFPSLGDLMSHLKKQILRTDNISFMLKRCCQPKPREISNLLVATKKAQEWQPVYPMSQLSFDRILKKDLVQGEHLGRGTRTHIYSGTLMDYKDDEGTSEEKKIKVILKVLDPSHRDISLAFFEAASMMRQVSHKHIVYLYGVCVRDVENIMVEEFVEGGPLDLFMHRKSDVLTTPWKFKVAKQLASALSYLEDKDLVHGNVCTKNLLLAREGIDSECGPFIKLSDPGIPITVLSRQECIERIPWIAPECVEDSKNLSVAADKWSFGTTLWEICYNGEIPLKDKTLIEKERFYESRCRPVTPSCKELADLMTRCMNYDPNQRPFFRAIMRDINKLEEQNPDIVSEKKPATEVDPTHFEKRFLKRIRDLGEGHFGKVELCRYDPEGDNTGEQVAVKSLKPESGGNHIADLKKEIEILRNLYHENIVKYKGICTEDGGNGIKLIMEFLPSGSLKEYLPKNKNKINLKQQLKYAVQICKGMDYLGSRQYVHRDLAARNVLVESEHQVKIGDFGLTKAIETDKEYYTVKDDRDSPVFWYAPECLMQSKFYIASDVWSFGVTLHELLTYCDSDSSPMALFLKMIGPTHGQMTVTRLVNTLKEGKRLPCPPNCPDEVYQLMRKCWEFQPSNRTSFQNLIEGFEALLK
# TTK, sequence (P33981 whole entry): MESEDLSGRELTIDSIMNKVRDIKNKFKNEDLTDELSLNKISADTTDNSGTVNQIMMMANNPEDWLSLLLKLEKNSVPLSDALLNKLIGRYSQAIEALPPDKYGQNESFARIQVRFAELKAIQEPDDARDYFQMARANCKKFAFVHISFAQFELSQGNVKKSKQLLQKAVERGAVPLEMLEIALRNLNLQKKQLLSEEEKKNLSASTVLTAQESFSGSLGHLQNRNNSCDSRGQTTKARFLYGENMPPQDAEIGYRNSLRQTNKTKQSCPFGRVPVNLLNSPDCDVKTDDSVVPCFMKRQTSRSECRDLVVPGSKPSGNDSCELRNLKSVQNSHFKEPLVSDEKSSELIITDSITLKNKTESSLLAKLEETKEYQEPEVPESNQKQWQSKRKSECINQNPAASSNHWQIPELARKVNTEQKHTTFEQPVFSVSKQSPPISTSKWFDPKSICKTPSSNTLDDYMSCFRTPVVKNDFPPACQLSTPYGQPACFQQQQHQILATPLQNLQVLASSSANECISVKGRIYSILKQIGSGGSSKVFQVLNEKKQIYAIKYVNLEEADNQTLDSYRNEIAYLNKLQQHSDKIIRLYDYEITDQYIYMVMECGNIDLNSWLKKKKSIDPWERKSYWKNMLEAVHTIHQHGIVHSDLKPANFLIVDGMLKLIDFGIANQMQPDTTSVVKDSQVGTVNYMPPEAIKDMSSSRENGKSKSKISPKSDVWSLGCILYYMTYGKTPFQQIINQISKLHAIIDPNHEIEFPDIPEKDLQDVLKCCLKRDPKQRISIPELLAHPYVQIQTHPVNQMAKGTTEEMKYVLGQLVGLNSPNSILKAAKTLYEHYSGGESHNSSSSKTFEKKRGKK
# AURKB (Aurora B), sequence (Q96GD4 whole entry): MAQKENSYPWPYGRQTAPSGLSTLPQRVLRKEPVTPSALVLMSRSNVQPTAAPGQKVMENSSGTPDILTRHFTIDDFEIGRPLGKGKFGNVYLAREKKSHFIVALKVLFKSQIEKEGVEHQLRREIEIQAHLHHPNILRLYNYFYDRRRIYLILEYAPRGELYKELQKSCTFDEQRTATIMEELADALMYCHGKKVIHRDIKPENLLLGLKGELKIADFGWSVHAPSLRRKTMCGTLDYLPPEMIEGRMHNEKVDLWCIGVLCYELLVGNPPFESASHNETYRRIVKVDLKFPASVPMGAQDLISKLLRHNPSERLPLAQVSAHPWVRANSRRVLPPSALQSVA
# AURKA (Aurora A), sequence (O14965 whole entry): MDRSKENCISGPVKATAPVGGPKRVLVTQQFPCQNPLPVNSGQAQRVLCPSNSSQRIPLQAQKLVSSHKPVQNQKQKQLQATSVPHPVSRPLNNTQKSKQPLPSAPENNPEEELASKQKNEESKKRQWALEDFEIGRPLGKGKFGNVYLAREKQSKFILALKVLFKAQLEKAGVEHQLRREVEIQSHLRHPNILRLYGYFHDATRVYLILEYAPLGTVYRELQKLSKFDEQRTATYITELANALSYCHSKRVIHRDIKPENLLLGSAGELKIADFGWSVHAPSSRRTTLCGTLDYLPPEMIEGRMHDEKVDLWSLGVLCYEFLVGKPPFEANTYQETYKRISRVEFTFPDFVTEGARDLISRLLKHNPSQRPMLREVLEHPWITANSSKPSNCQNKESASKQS
# JAK2, sequence (O60674 whole entry): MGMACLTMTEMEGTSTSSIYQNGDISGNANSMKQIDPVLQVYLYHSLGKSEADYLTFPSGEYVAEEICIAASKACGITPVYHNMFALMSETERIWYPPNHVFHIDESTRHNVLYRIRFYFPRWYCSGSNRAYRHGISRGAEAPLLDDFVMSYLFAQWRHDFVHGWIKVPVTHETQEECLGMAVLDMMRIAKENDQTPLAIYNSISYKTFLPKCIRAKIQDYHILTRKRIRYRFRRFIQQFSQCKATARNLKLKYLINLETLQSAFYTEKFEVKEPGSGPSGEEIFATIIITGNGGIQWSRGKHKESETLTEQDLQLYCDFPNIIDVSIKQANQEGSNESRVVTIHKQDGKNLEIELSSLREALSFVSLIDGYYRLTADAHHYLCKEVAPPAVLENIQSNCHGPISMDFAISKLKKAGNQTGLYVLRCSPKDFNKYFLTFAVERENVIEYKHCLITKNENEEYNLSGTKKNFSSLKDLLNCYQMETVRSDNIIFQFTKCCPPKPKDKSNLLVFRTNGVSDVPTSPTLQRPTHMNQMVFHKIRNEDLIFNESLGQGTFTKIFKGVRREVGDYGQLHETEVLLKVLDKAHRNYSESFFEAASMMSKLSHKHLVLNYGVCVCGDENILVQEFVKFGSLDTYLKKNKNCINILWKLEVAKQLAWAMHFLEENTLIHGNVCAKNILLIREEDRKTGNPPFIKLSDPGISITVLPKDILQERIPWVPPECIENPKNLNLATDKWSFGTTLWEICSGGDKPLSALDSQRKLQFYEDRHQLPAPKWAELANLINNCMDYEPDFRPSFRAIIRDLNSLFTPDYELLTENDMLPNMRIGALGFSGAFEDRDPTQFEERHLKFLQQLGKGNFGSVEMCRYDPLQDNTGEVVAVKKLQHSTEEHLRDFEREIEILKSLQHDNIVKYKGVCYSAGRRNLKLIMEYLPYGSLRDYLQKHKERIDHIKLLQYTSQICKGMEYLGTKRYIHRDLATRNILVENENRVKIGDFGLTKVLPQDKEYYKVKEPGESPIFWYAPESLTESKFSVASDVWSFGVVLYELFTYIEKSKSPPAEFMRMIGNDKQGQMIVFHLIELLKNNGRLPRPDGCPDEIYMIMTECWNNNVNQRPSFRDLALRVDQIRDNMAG
SMILES,IC50 (JAK3) [µM],IC50 (JAK2) [µM],IC50 (AURKB (Aurora B)) [µM],IC50 (AURKA (Aurora A)) [µM],IC50 (JAK1) [µM],TTK enz pIC50 (TTK),IC50 (DNAPK [1]) [µM],IC50 (DNAPK [2]) [µM],IC50 (TTK; read-out: TTK enz pIC50 (converted)) [µM]
"Cc1cc2ncnn2cc1Nc1ncc2c(n1)n(C1CCOCC1)c(=O)n2C [Example 3, 7-methyl-2-((7-methyl-[1,2,4]triazolo[1,5-a]pyridin-6-yl)amino)-9-(tetrahydro-2H-pyran-4-yl)-7,9-dihydro-8H-purin-8-one]",> 10,> 10,> 10,> 10,> 10,–,–,–,–
"Cc1cc2ncnn2cc1Nc1ncc2c(n1)n([C@H]1CC[C@](C)(O)CC1)c(=O)n2C [Example 9, 9-((1r,4r)-4-hydroxy-4-methylcyclohexyl)-7-methyl-2-((7-methyl-[1,2,4]triazolo[1,5-a]pyridin-6-yl)amino)-7,9-dihydro-8H-purin-8-one]",> 10,> 10,> 10,> 10,> 10,–,–,–,–
"CO[C@H]1CC[C@@H](n2c(=O)n(C)c3cnc(Nc4cn5ncnc5cc4C)nc32)CC1 [Example 5, 9-((1s,4s)-4-methoxycyclohexyl)-7-methyl-2-((7-methyl-[1,2,4]triazolo[1,5-a]pyridin-6-yl)amino)-7,9-dihydro-8H-purin-8-one]",> 10,> 10,> 10,> 10,> 10,5.3,0.126,0.001,–
"Cc1cc2ncnn2cc1Nc1ncc2c(n1)n([C@H]1CC[C@H](O)CC1)c(=O)n2C [Example 1, 9-((1r,4r)-4-hydroxycyclohexyl)-7-methyl-2-((7-methyl-[1,2,4]triazolo[1,5-a]pyridin-6-yl)amino)-7,9-dihydro-8H-purin-8-one]",> 10,> 10,> 10,> 10,> 10,5.5,–,–,–
"Cc1cc2ncnn2cc1Nc1ncc2c(n1)n([C@H]1CCOC1)c(=O)n2C [Example 11, (S)-7-methyl-2-((7-methyl-[1,2,4]triazolo[1,5-a]pyridin-6-yl)amino)-9-(tetrahydrofuran-3-yl)-7,9-dihydro-8H-purin-8-one]",> 10,> 10,> 10,> 10,> 10,–,0.158,0.000501,> 7.94
"CO[C@H]1CC[C@H](n2c(=O)n(C)c3cnc(Nc4cn5ncnc5cc4C)nc32)CC1 [Example 6, 9-((1r,4r)-methoxycyclohexyl)-7-methyl-2-((7-methyl-[1,2,4]triazolo[1,5-a]pyridin-6-yl)amino)-7,9-dihydro-8H-purin-8-one]",> 10,> 10,> 10,> 10,> 10,5.9,0.0398,0.000251,–
"Cc1cc2ncnn2cc1Nc1ncc2c(n1)n([C@H]1CC[C@@](C)(O)CC1)c(=O)n2C [Example 10, 9-((1s,4s)-4-hydroxy-4-methylcyclohexyl)-7-methyl-2-((7-methyl-[1,2,4]triazolo[1,5-a]pyridin-6-yl)amino)-7,9-dihydro-8H-purin-8-one]",> 10,> 10,> 10,> 10,> 10,–,–,–,–
"Cc1cc2ncnn2cc1Nc1ncc2c(n1)n([C@]1(C)CC[C@H](O)CC1)c(=O)n2C [Example 12, 9-((1s,4s)-4-hydroxy-1-methylcyclohexyl)-7-methyl-2-((7-methyl-[1,2,4]triazolo[1,5-a]pyridin-6-yl)amino)-7,9-dihydro-8H-purin-8-one]",> 10,> 10,> 10,> 10,> 10,5.8,0.0398,0.0002,–
"Cc1cc2ncnn2cc1Nc1ncc2c(n1)n([C@@H]1CCCOC1)c(=O)n2C [Example 8, (R)-7-methyl-2-((7-methyl-[1,2,4]triazolo[1,5-a]pyridin-6-yl)amino)-9-(tetrahydro-2H-pyran-3-yl)-7,9-dihydro-8H-purin-8-one]",> 10,> 10,> 10,> 10,> 10,5.2,0.0631,0.000398,–
"Cc1cc2ncnn2cc1Nc1ncc2c(n1)n(C1CCCCC1)c(=O)n2C [Example 13, 9-cyclohexyl-7-methyl-2-((7-methyl-[1,2,4]triazolo[1,5-a]pyridin-6-yl)amino)-7,9-dihydro-8H-purin-8-one]",> 10,> 10,> 10,3.98,> 10,6.3,–,–,–
"Cc1cc2ncnn2cc1Nc1ncc2c(n1)n([C@H]1CC[C@@H](O)CC1)c(=O)n2C [Example 2, 9-((1s,4s)-4-hydroxycyclohexyl)-7-methyl-2-((7-methyl-[1,2,4]triazolo[1,5-a]pyridin-6-yl)amino)-7,9-dihydro-8H-purin-8-one]",> 10,> 10,> 10,> 10,> 10,6.1,–,–,–
"Cc1cc2ncnn2cc1Nc1ncc2c(n1)n([C@H]1CCCOC1)c(=O)n2C [Example 7, (S)-7-methyl-2-((7-methyl-[1,2,4]triazolo[1,5-a]pyridin-6-yl)amino)-9-(tetrahydro-2H-pyran-3-yl)-7,9-dihydro-8H-purin-8-one]",> 10,> 10,> 10,> 10,> 10,5.2,0.0501,0.000158,–
"Cc1nc2cc(C)c(Nc3ncc4c(n3)n(C3CCOCC3)c(=O)n4C)cn2n1 [Example 4, 2-((2,7-dimethyl-[1,2,4]triazolo[1,5-a]pyridin-6-yl)amino)-7-methyl-9-(tetrahydro-2H-pyran-4-yl)-7,9-dihydro-8H-purin-8-one]",> 10,> 10,> 10,> 10,> 10,5.1,0.158,0.00126,–

# From US10407446B2, “Amino-triazolopyridine compounds and their use in treating cancer” (AstraZeneca AB, priority 2016, dated 2019)
